# Laboratory results: patent US7728131B2, “Amide derivative and medicine” (Nippon Shinyaku Co., Ltd., priority 2003, dated 2010)
# pIC50: −log10 of the molar value.
# Tests used:
# U937 cells = test: Cell growth inhibitory effect, U937 cells (Cell counting Kit-8, 72 hours); assay type: cell-based; conditions: Homo sapiens, U-937, BCR-ABL negative U937 cells, WST-8 absorbance, continuation of Table 3, read-out: U937 cells (IC50 value: nμM)
# Description: The plate was incubated in a CO2 incubator overnight. […] The plate was incubated in a CO2 incubator. After 72 hours, 20 μl
# K562 cells = test: Cell growth inhibitory effect, K562 cells (Cell counting Kit-8, 72 hours); conditions: for IC50: Homo sapiens, K562, 72 h, read-out: K562 cells (IC50 value: μM); for Ratio (U937 cells/K562 cells): IC50 U937 cells / IC50 K562 cells;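 as to all read-outs here: Read-out is formazan absorbance at 450 nm from WST-8 reduction after a 3 h color reaction, with K562 and U937 cells grown in 96-well plates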
# Description: of Cell counting Kit-8 (5 mmol/l WST-8, 0.2 mmol/1 1-Methoxy PMS, 150 mmol/l NaCl) (manufactured by Dojindo) was added to each well. After reaction for color development in a CO2 incubator for 3 hours, an absorbance of formazan, generated by reduction of WST-8 was determined at 450 nm using Multi-level counter ARVOsx (manufactured by Wallac).
# K562 cells and U937 cells (purchased from American Type Culture Collection) were cultured in a RPMI-1640 medium (manufactured by Sigma) containing 10% (v/v) fetal calf serum (FCS) (manufactures by Sigma) (RPMI-1640/FCS). K562 cells and U937 cells were seeded at a density of 5000 cells/100 μl/well and 4000 cells/100 μl/well in each of 96-hole-plate (manufactured by costar), respectively. The plate was incubated in a CO2 incubator overnight. […] The resulting solution was diluted 500 times in a RPMI-1640/FCS medium and then 100 μl of the diluent was added in a well. The plate was incubated in a CO2 incubator. After 72 hours, 20 μl
Structure (SMILES),pIC50 (U937 cells),IC50 (K562 cells),melting point,Ratio (U937 cells/K562 cells) (K562 cells)
"Cc1ccc(NC(=O)c2ccc(CN3C[C@@H](C)[C@H](N(C)C)C3)c(C(F)(F)F)c2)cc1Nc1nccc(-c2cncnc2)n1.Cl [Example 67, (−)-4-[(3S,4R)-3-(dimethylamino)-4-methylpyrrolidin-1-ylmethyl]-3-trifluoromethyl-N-{4-methyl-3-[4-(5-pyrimidinyl)pyrimidin-2-ylamino]phenyl}benzamide hydrochloride]",5.19,0.0077 µM,164 to 174 °C (dec.),844
"Cc1ccc(NC(=O)c2ccc(CN3CCN(Cc4oc(=O)oc4C)CC3)c(C(F)(F)F)c2)cc1Nc1nccc(-c2cncnc2)n1.Cl [Example 73, 4-{4-[(5-methyl-2-oxo-1,3-dioxol-4-yl)methyl]piperazin-1-ylmethyl}-3-trifluoromethyl-N-{4-methyl-3-[4-(5-pyrimidinyl)pyrimidin-2-ylamino]phenyl}benzamide hydrochloride]",5.01,0.0023 µM,218 to 226 °C (dec.),4217
"Cc1ccc(NC(=O)c2ccc(CN3CCN(C)CC3)c(C(F)(F)F)c2)cc1Nc1nc(-c2ccncc2)cs1.Cl [Example 75, 4-(4-methylpipiperazin-1-ylmethyl)-3-trifluoromethyl-N-{4-methyl-3-[4-(4-pyridyl)thiazol-2-ylamino]phenyl}benzamide hydrochloride]",5.57,0.0059 µM,186 to 188 °C,458
"Cc1ccc(NC(=O)c2ccc(CN3CC[C@H](CN(C)C)C3)c(C(F)(F)F)c2)cc1Nc1nccc(-c2cncnc2)n1.Cl [Example 79, 4-[(R)-3-(dimethylaminomethyl)pyrrolidin-1-ylmethyl]-3-trifluoromethyl-N-{4-methyl-3-[4-(5-pyrimidinyl)pyrimidin-2-ylamino]phenyl}benzamide hydrochloride]",4.70,0.0059 µM,114 to 122 °C (dec.),4348

# Second part, led by results:
pIC50 (U937 cells),IC50 (K562 cells),melting point,Structure (SMILES),Ratio (U937 cells/K562 cells) (K562 cells)
5.00,0.0022 µM,187 to 193 °C,"Cc1ccc(NC(=O)c2ccc(CN3CCN(C)[C@@H](C)C3)c(C(F)(F)F)c2)cc1Nc1nccc(-c2cncnc2)n1.Cl [Example 69, (−)-4-((S)-3,4-dimethylpiperazin-1-ylmethyl)-3-trifluoromethyl-N-{4-methyl-3-[4-(5-pyrimidinyl)pyrimidin-2-ylamino]phenyl}benzamide hydrochloride]",4545
5.17,0.0061 µM,186 to 194 °C,"Cc1ccc(NC(=O)c2ccc(CN3CCN(C)[C@H](C)C3)c(C(F)(F)F)c2)cc1Nc1nccc(-c2cncnc2)n1.Cl [Example 71, (+)-4-((R)-3,4-dimethylpiperazin-1-ylmethyl)-3-trifluoromethyl-N-{4-methyl-3-[4-(5-pyrimidinyl)pyrimidin-2-ylamino]phenyl}benzamide hydrochloride]",1098
< 4.00,0.018 µM,159 to 167 °C (dec.),"Cc1ccc(NC(=O)c2ccc(CN3CC(N(C)C)C3)c(C(F)(F)F)c2)cc1Nc1nccc(-c2cncnc2)n1.Cl [Example 77, 4-[3-(dimethylamino)azetidin-1-ylmethyl]-3-trifluoromethyl-N-{4-methyl-3-[4-(5-pyrimidinyl)pyrimidin-2-ylamino]phenyl}benzamide hydrochloride]",>13699
< 4.00,0.0047 µM,114 to 122 °C (dec.),"Cc1ccc(NC(=O)c2ccc(CN3CC[C@@H](CN(C)C)C3)c(C(F)(F)F)c2)cc1Nc1nccc(-c2cncnc2)n1.Cl [Example 81, 4-[(S)-3-(dimethylaminomethyl)pyrrolidin-1-ylmethyl]-3-trifluoromethyl-N-{4-methyl-3-[4-(5-pyrimidinyl)pyrimidin-2-ylamino]phenyl}benzamide hydrochloride]",>27778
